Laboratory results reported in the NIST ThermoML archive (doi:10.1016/j.tca.2012.12.008).

Assay: xn = mol fraction of the nth substance listed
Settings: 101 kPa, Liquid; for viscosity: Capillary tube (Ostwald / Ubbelohde) method; for mass density: Vibrating tube method

CCCCC(C)O (stereo not drawn) [2-hexanol] + CCC(C)=O
Settings | mass density, 298.15 K [kg/m3] | mass density, 303.15 K [kg/m3] | mass density, 308.15 K [kg/m3] | mass density, 313.15 K [kg/m3] | viscosity, 298.15 K [mPa·s] | viscosity, 303.15 K [mPa·s] | viscosity, 308.15 K [mPa·s] | viscosity, 313.15 K [mPa·s]
x2 = 0 | 810.14 | 806.13 | 802.06 | 797.96 | 4.101 | 3.411 | 2.819 | 2.219
x2 = 0.0874 | 808.49 | 804.57 | 800.48 | 796.34 | 3.085 | 2.587 | 2.145 | 1.714
x2 = 0.1661 | 807.21 | 803.17 | 799.05 | 794.87 | 2.413 | 2.035 | 1.684 | 1.358
x2 = 0.2482 | 805.92 | 801.8 | 797.59 | 793.4 | 1.909 | 1.63 | 1.361 | 1.086
x2 = 0.355 | 804.36 | 800.03 | 795.83 | 791.6 | 1.454 | 1.232 | 1.027 | 0.826
x2 = 0.4463 | 803.2 | 798.8 | 794.5 | 790.25 | 1.178 | 0.998 | 0.831 | 0.692
x2 = 0.5671 | 801.84 | 797.36 | 792.94 | 788.71 | 0.889 | 0.775 | 0.678 | 0.592
x2 = 0.6534 | 801.04 | 796.47 | 792.02 | 787.75 | 0.718 | 0.647 | 0.587 | 0.536
x2 = 0.7422 | 800.4 | 795.74 | 791.22 | 786.94 | 0.603 | 0.564 | 0.525 | 0.487
x2 = 0.8547 | 799.91 | 795.09 | 790.45 | 786.14 | 0.505 | 0.479 | 0.449 | 0.419
x2 = 0.942 | 799.62 | 794.76 | 790.06 | 785.68 | 0.429 | 0.41 | 0.388 | 0.366
